Among the data in PubChem BioAssay (NCI) are TGI values, retold here.

Some test systems named below: A549 NSCLC; HOP-62 NSCLC; HS 578T breast; IGROV1 ovarian; KM12 colon; NCI-H23 lung; NCI-H460 lung; OVCAR-4 ovarian; RPMI-8226 leukemia; SF-268 CNS; SF-295 CNS; SK-OV-3 ovarian; UACC-62 melanoma; HL-60(TB) leukemia; LOX IMVI melanoma.
What all share (test): NCI-60 cell line screen, 48 h

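These data come from cells grown in 96-well plates and exposed to compound for 48 hours at five concentrations. Definition used: TGI = concentration required for complete inhibition of growth.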 Some results are limits rather than exact numbers.

As to `Cc1cc(N(CCC#N)CCC#N)ccc1/C(N=Nc1ccc(C(=O)O)cc1)=N\NC(=O)c1cc(Cl)ccc1O`, the TGI in the assay with A549 NSCLC was above 100 µM; with HOP-62 NSCLC, 65.4 µM; in the assay with HS 578T breast, 47.1 µM; in the assay with IGROV1 ovarian it was 59 µM; in the assay with KM12 colon, above 100 µM; with NCI-H23 lung, above 100 µM. In addition, the TGI with NCI-H460 lung was above 100 µM; with OVCAR-4 ovarian, 97 µM; with RPMI-8226 leukemia it was above 100 µM; in the assay on SF-268 CNS, 42.3 µM; with SF-295 CNS, 34.7 µM; in the assay on SK-OV-3 ovarian, 64.5 µM. Besides, the TGI with UACC-62 melanoma is above 100 µM.

Consider `N#C/C(c1nc2ccccc2[nH]1)=c1\s/c(=C/c2ccc(Cl)cc2)c(=O)n1-c1ccccc1`, for which the TGI in the assay on A549 NSCLC, in the assay with HL-60(TB) leukemia, in the assay on HOP-62 NSCLC, in the assay on IGROV1 ovarian, with KM12 colon and in the assay on LOX IMVI melanoma was above 100 µM in each case. Moreover, the TGI with NCI-H23 lung, in the assay with NCI-H460 lung, with OVCAR-4 ovarian, with RPMI-8226 leukemia, in the assay with SF-268 CNS and in the assay with SK-OV-3 ovarian was above 100 µM throughout. The same compound had a TGI with UACC-62 melanoma above 100 µM.

Take `Cc1ccc(N2C(=O)CS/C2=C(\C#N)c2nc3ccccc3[nH]2)cc1`: the TGI in the assay with A549 NSCLC, in the assay with HL-60(TB) leukemia, in the assay with HOP-62 NSCLC, in the assay on IGROV1 ovarian, in the assay with KM12 colon and in the assay on LOX IMVI melanoma was above 100 µM throughout. Also, the TGI in the assay with NCI-H23 lung was above 100 µM; in the assay with NCI-H460 lung, above 100 µM; in the assay on OVCAR-4 ovarian, above 100 µM; in the assay with RPMI-8226 leukemia it was above 100 µM; in the assay on SF-268 CNS it was above 100 µM; in the assay on UACC-62 melanoma it was 82.7 µM.

Take `CCC12CCCN(Cc3ccccc3)C1c1c(n(C)c3ccccc13)C(C(=O)OC)C2` (configuration not stated): the TGI in the assay on A549 NSCLC, in the assay with HL-60(TB) leukemia, in the assay on HOP-62 NSCLC, with IGROV1 ovarian, in the assay on KM12 colon and in the assay with LOX IMVI melanoma was above 239 µM each time. Also, the TGI in the assay on NCI-H23 lung was above 239 µM; with NCI-H460 lung, above 239 µM; with RPMI-8226 leukemia it was above 239 µM; in the assay with SF-268 CNS it was above 239 µM; in the assay on SF-295 CNS it was 231 µM; in the assay on SK-OV-3 ovarian, above 239 µM. The compound also had a TGI in the assay with UACC-62 melanoma above 239 µM.

On to `CC(=O)NNc1nc(C)c(C(=O)/C=C/c2ccccc2Cl)s1`, for which the TGI with A549 NSCLC, in the assay on HL-60(TB) leukemia, in the assay with HOP-62 NSCLC, with IGROV1 ovarian, with KM12 colon and with LOX IMVI melanoma was above 100 µM in each case. Besides, the TGI in the assay with NCI-H23 lung, with NCI-H460 lung, in the assay with RPMI-8226 leukemia, in the assay on SF-268 CNS, with SF-295 CNS and in the assay with SK-OV-3 ovarian was above 100 µM throughout. Besides, in the assay with UACC-62 melanoma, the TGI was above 100 µM.

Consider `CCOC(=O)/C=C/n1c2ccccc2c(=O)c2ccccc21`, for which the TGI in the assay with A549 NSCLC, in the assay on HL-60(TB) leukemia, in the assay on HOP-62 NSCLC, in the assay with IGROV1 ovarian, in the assay on KM12 colon and in the assay with LOX IMVI melanoma was above 100 µM throughout. In addition, the TGI in the assay on NCI-H23 lung, in the assay on NCI-H460 lung, in the assay with OVCAR-4 ovarian, in the assay with RPMI-8226 leukemia, in the assay on SF-268 CNS and in the assay with SF-295 CNS was above 100 µM throughout. In addition, the TGI in the assay with UACC-62 melanoma was above 100 µM.

In the case of `COc1ccc(CNC(=O)NCn2cc(-c3ccccc3)nn2)cc1`, the TGI in the assay on A549 NSCLC, in the assay on HL-60(TB) leukemia, in the assay with HOP-62 NSCLC, in the assay with IGROV1 ovarian, in the assay on KM12 colon and in the assay with LOX IMVI melanoma was above 100 µM throughout. The TGI with NCI-H23 lung, in the assay with NCI-H460 lung, in the assay with OVCAR-4 ovarian, with RPMI-8226 leukemia, in the assay on SF-268 CNS and in the assay on SF-295 CNS was above 100 µM in each case.

With `Nc1nc(SCc2ccc([N+](=O)[O-])cc2)nc2c1ncn2C1OC(CO)C(O)C1O` (configuration not stated), the TGI in the assay on A549 NSCLC, with HL-60(TB) leukemia, in the assay on HOP-62 NSCLC, in the assay on IGROV1 ovarian, in the assay on KM12 colon and with LOX IMVI melanoma was above 100 µM in each case. Also, the TGI with NCI-H23 lung, in the assay with NCI-H460 lung, in the assay with OVCAR-4 ovarian, in the assay with RPMI-8226 leukemia, in the assay on SF-268 CNS and in the assay on SF-295 CNS was above 100 µM in each case.

As to `CN1c2ccccc2N(C(=O)c2ccc(Cl)cc2)C(CC(=O)O)c2cccn21` (configuration not stated), the TGI in the assay with A549 NSCLC, with HL-60(TB) leukemia, in the assay with HOP-62 NSCLC, in the assay on IGROV1 ovarian, in the assay with KM12 colon and with LOX IMVI melanoma was above 100 µM in each case. Further, the TGI with NCI-H23 lung, in the assay on NCI-H460 lung, with OVCAR-4 ovarian, in the assay with RPMI-8226 leukemia, in the assay with SF-268 CNS and in the assay with SF-295 CNS was above 100 µM each time. The TGI in the assay with SK-OV-3 ovarian and in the assay on UACC-62 melanoma was above 100 µM throughout.

As to `CC(C)CC(NC(=O)OC(C)(C)C)C(=O)Nc1ccc(Nc2nc(F)nc(-c3c4ccccc4c4n3CCS4)n2)cc1` (configuration not stated), the TGI was above 100 µM with A549 NSCLC; 46.5 µM in the assay with HL-60(TB) leukemia; 37.2 µM in the assay with HOP-62 NSCLC; 42.3 µM in the assay on IGROV1 ovarian; 51.1 µM in the assay on KM12 colon; 33.1 µM in the assay on NCI-H23 lung. The TGI was determined as 36.5 µM in the assay with NCI-H460 lung; 58.6 µM with RPMI-8226 leukemia; 61.3 µM with SF-268 CNS; 35.9 µM in the assay on SF-295 CNS; 32.9 µM in the assay with SK-OV-3 ovarian; 31.9 µM with UACC-62 melanoma.
